# In patent publication EP0635577B1, “Screen for inhibitors of melanin biosynthesis” (BASF AKTIENGESELLSCHAFT, priority 1993, dated 1995):
# Counter-ions that a name gives are not always drawn.
# System: Cladosporium cucumerinum
# Test: melanin biosynthesis inhibition screen, disk diffusion assay on solidified culture
# Type: cell-based
# Details: not given
# Method: Potato dextrose medium (PDM) for the screening test is prepared by melting
# The mixture is autoclaved as 150 ml aliquots at 121°C for 25 minutes.
# A chloramphenicol stock solution is prepared to contain 15 mg chloramphenicol per mL absolute ethanol and is stored at -20°C.
# Conidia from Cladosporium cucumerinum, 10^7/mL in 0.03% Tween 20™, retain their viability for at least 12 weeks of storage in 1.8 ml cryovials at -85°C. Inoculum for running the screen are raised once every three months and stored without a cryoprotectant at the working concentration of 10^7 conidia/mL.
# Fresh inoculum suspensions are prepared from conidial suspensions stored at -85°C. A cryovial is thawed by hand-heat, and 200 uL spread on the surface of PDA in 9 cm Petri dishes. Plates are placed in a resin box (to prevent fungal escape) and incubated at room temperature, 40 cm below laboratory fluorescent lights. Seven days later conidia are collected. Five mL of 0.03% Tween 20™ is added to each plate, and the conidia are released by rubbing the mycelium with a glass rod. The suspension is passed through a layer of sterile Miracloth™ and the concentration adjusted to 10^7 conidia/mL in 0.03% Tween 20™ using a haemocytometer. Aliquots of 1 mL are dispensed into cryovials and placed in a polystyrene holder to freeze slowly to -85°C.
# For the test, 150 mL of PDM is cooled to 35°C, and 0.1 mL of chloramphenicol stock solution is added by gentle swirling. A vial of C. cucumerinum conidial suspension (10^7 conidia/ml in Tween 20™) thawed with hand-heat is mixed into the growth medium using gentle swirling. The mixture is poured immediately into a Biotray, and the agar is allowed to solidify.
# Test compounds are applied to 0.63 cm (¼ inch) filter disks. Each test includes a positive control, 200 ng tricyclazole in 20% dimethyl sulphoxide (DMSO). The plate is incubated at room-temperature (∼23°C) 40 cm below laboratory fluorescent lights. The plate is read 40 hours later. […] The Biotrays are autoclaved before disposal.
# The compounds are applied as 20 ul droplets from a 1 mg/ml stock solution.
Molecule,"Observation: inhibits, radius cleared","Observation: fungal thinning, radius",Observation
C[C@@H]1C[C@@H]([C@H](O)CC2CC(=O)NC(=O)C2)C(=O)[C@@H](C)C1 [Cycloheximide],"inhibits, 22 mm radius cleared",–,–
CN1C(=O)[C@]23CC4=CC=C[C@H](O)[C@H]4N2C(=O)[C@@]1(CO)SS3 [Gliotoxin],"inhibits, 17 mm radius cleared",–,–
Nc1ncnc2c1ccn2[C@@H]1O[C@H](CO)[C@@H](O)[C@H]1O [Tubercidin],–,"fungal thinning, 10 mm radius",–
CN[C@H](CC(C)C)C(=O)N[C@H]1C(=O)N[C@@H](CC(N)=O)C(=O)N[C@H]2C(=O)N[C@H]3C(=O)N[C@H](C(=O)N[C@H](C(=O)O)c4cc(O)cc(O)c4-c4cc3ccc4O)[C@H](O)c3ccc(c(Cl)c3)Oc3cc2cc(c3O[C@@H]2O[C@H](CO)[C@@H](O)[C@H](O)[C@H]2O[C@H]2C[C@](C)(N)[C@H](O)[C@H](C)O2)Oc2ccc(cc2Cl)[C@H]1O [Vancomycin HCl],–,–,no effect on growth or pigmentation

# Same assay, conditions: Antifungal Panel; effect on growth and pigmentation in words; 20 ul droplets from a 1 mg/ml stock solution on filter disk; read 40 hours later
row,Molecule,Observation
1,C[C@@H]1[C@H](O)[C@@H](C)/C=C/C=C/C=C/C=C/C=C/C=C/C=C/[C@H](O[C@@H]2O[C@H](C)[C@@H](O)[C@H](N)[C@@H]2O)C[C@@H]2O[C@](O)(C[C@@H](O)C[C@@H](O)[C@H](O)CC[C@@H](O)C[C@@H](O)CC(=O)O[C@H]1C)C[C@H](O)[C@H]2C(=O)O [Amphotericin B],no effect on growth or pigmentation
2,COCC(=O)N(c1c(C)cccc1C)C(C)C(=O)OC (stereo not drawn) [Metalaxyl],no effect on growth or pigmentation
3,C=CC1(C)OC(=O)N(c2cc(Cl)cc(Cl)c2)C1=O (stereo not drawn) [Ronilon],very slight effect on growth
4,Maneb,"no effect on pigmentation, growth thin"

# Same assay, conditions: Antifungal Panel; growth inhibition zone; 20 ul droplets from a 1 mg/ml stock solution on filter disk; read 40 hours later
row,Molecule,"Observation: inhibits, radius cleared"
1,Nc1nc(=O)[nH]cc1F [5-Fluoro-Cytosine],"inhibits, 35 mm radius cleared"
2,Nc1nc[nH]n1 [Amino-triazole],"inhibits, 13 mm radius cleared"
3,CCCCNC(=O)n1c(NC(=O)OC)nc2ccccc21 [Benomyl],"inhibits, 31 mm radius cleared"
4,CC1=C(C(=O)Nc2ccccc2)SCCO1 [Carboxin],"inhibits, 21 mm radius cleared"
5,CC(C)(C)C(O)/C(=C\c1ccc(Cl)cc1Cl)n1cncn1 (stereo not drawn) [Diniconazole],"inhibits, 27 mm radius cleared"
6,Clc1ccc(COC(Cn2ccnc2)c2ccc(Cl)cc2Cl)cc1 (stereo not drawn) [Econazole],"inhibits, 32 mm radius cleared"
7,OC(c1ccc(Cl)cc1)(c1cncnc1)c1ccccc1Cl (stereo not drawn) [Fenarimole],"inhibits, 22 mm radius cleared"
8,Clc1cc(Cl)c(OCC#CI)cc1Cl [Haloprofin],"inhibits, 13 mm radius cleared"
9,NC[C@H]1O[C@H](O[C@H]2[C@H](O)[C@@H](O[C@H]3O[C@H](CO)[C@@H](O)[C@H](N)[C@H]3O)[C@H](N)C[C@@H]2N)[C@H](O)[C@@H](O)[C@@H]1O [Kanamycin],"inhibits, 10 mm radius cleared"
10,CC(=O)N1CCN(c2ccc(OCC3COC(Cn4ccnc4)(c4ccc(Cl)cc4Cl)O3)cc2)CC1 (stereo not drawn) [Ketoconazole],"inhibits, 26 mm radius cleared"
11,Clc1ccc(COC(Cn2ccnc2)c2ccc(Cl)cc2Cl)c(Cl)c1 (stereo not drawn) [Miconazole],"inhibits, 31 mm radius cleared"
12,C[C@@H]([C@H](N)C(=O)N[C@H](C(=O)O)[C@H]1O[C@@H](n2ccc(=O)[nH]c2=O)[C@H](O)[C@@H]1O)[C@H](O)c1ccc(O)cn1 [Nikkomycin],"inhibits, 38 mm radius cleared"
13,CP(=O)(O)CC[C@H](N)C(=O)O [Phosphenothricin],"inhibits, 20 mm radius cleared"
14,NC(=O)OC[C@H](O)[C@@H](O)[C@H](N)C(=O)N[C@H](C(=O)O)[C@H]1O[C@@H](n2cc(C(=O)O)c(=O)[nH]c2=O)[C@H](O)[C@@H]1O [Polyoxin D],"inhibits, 7 mm radius cleared"
15,COC(=O)c1ccccc1S(=O)(=O)NC(=O)Nc1nc(C)cc(C)n1 [Sulfometuron methyl],"inhibits, 6 mm radius cleared"
16,Cc1cccc(N(C)C(=S)Oc2ccc3ccccc3c2)c1 [Tolnaftate],"inhibits, 13 mm radius cleared"
17,CCCCCCCCCCCCCN1CC(C)OC(C)C1 (stereo not drawn) [Tridemorph],"inhibits, 6 mm radius cleared"
18,Antimycin,"inhibits, 13 mm radius cleared"

# Same assay, conditions: C. cucumerinum Antibiotic Panel; effect on growth and pigmentation in words; screen of Example 1
row,Molecule,Observation
1,C[C@H]1CCC/C=C/[C@@H]2C[C@H](O)C[C@H]2[C@H](O)/C=C/C(=O)O1 [Ascotoxin],no effect on growth or pigmentation
2,Cc1cc(=O)n2c3c(c4c(cc13)c(CO)cc(=O)n4C)OC2 [Nybomycin],no effect on growth or pigmentation
3,CCCCC[C@@H](O)[C@H]1C(=O)O[C@H](C)[C@@H](O)/C=C/C=C/C=C/C=C/C=C(\C)[C@@H](O)[C@H](O)[C@H](O)C[C@H](O)C[C@H](O)C[C@H](O)C[C@H](O)C[C@@H]1O [Pentamycin],no effect on growth or pigmentation
4,CN(C)c1ncnc2c1ncn2[C@@H]1O[C@H](CO)[C@@H](N)[C@H]1O [Puromycin Aminonucleoside],no effect on growth or pigmentation
5,C[C@@H]1C[C@@H]2CCCC(O)=C2C(=O)O1 [Ramulosin],no effect on growth or pigmentation
6,CSC[S@+]([O-])C[C@H](CO)NC(=O)/C=C/c1c(C)[nH]c(=O)[nH]c1=O [Sparsomycin],no effect on growth or pigmentation
7,[H]/N=C(/N)N[C@H]1[C@H](O)[C@@H](O)[C@H](O[C@@H]2O[C@@H](C)[C@](O)(C=O)[C@H]2O[C@@H]2O[C@@H](CO)[C@H](O)[C@@H](O)[C@@H]2NC)[C@@H](N/C(N)=N\[H])[C@@H]1O [Streptomycin Sulfate],no effect on growth or pigmentation
8,C[C@@H]1C/C=C/C=C/C=C/C=C/[C@H](O[C@@H]2O[C@H](C)[C@@H](O)[C@H](N)[C@@H]2O)C[C@@H]2O[C@](O)(C[C@@H](O)C[C@H]3O[C@@H]3/C=C/C(=O)O1)C[C@H](O)[C@H]2C(=O)O [Tennecetin],no effect on growth or pigmentation
9,CC[C@H]1OC(=O)C[C@@H](O)[C@H](C)[C@@H](O[C@@H]2O[C@H](C)[C@@H](O[C@H]3C[C@@](C)(O)[C@@H](O)[C@H](C)O3)[C@H](N(C)C)[C@H]2O)[C@@H](CC=O)C[C@@H](C)C(=O)/C=C/C(C)=C/[C@@H]1CO[C@@H]1O[C@H](C)[C@@H](O)[C@@H](OC)[C@H]1OC [Tylosin Tartrate],no effect on growth or pigmentation
10,Aureofungin,no effect on growth or pigmentation
11,Dermostatin,no effect on growth or pigmentation
12,Flavofungin,no effect on growth or pigmentation
13,Hamycin,no effect on growth or pigmentation

# Same assay, conditions: C. cucumerinum Antibiotic Panel; growth inhibition zone; screen of Example 1
row,Molecule,"Observation: inhibits, radius cleared"
1,Nc1ccn([C@@H]2O[C@H]([C@H](O[C@@H]3O[C@H](CO)[C@@H](O)[C@H](N)[C@H]3O)[C@@H](O)[C@@H](O)[C@H](O)[C@H](O)CO)[C@@H](N)[C@H](O)[C@H]2O)c(=O)n1 [Anthelmycin],"inhibits, 14 mm radius cleared"
2,CN[C@@H]1C[C@H](N)[C@@H](O)[C@H](O[C@@H]2O[C@H](CO)[C@H](O)[C@@H]3OC4(O[C@H]23)O[C@H]([C@@H](N)CO)[C@H](O)[C@H](O)[C@H]4O)[C@H]1O (stereo partly drawn) [Destomycin A],"inhibits, 18 mm radius cleared"
3,C/C=C/[C@H]1O[C@@](O)([C@@H](C)[C@H](O)[C@H](C)[C@H]2OC(=O)/C(OC)=C/C(C)=C/[C@@H](C)[C@@H](O)[C@@H](CC)[C@@H](O)[C@H](C)C/C(C)=C/C=C/[C@@H]2OC)C[C@@H](O[C@H]2C[C@@H](O)[C@H](OC(N)=O)[C@@H](C)O2)[C@@H]1C [Folimycin],"inhibits, 4 mm radius cleared"
4,C[C@H]1C[C@H](C)C(=O)[C@@H]([C@H](O)CC2CC(=O)NC(=O)C2)C1 [Naramycin B],"inhibits, 15 mm radius cleared"
5,CC1CCC(=O)C=CC(=O)OC(C)CCC(=O)C=CC(=O)O1 (stereo not drawn) [Pyrenophorin],"inhibits, 12 mm radius cleared"
6,Cc1cc(O)c2c(c1)C(=O)[C@]13C(=C2O)C(=O)[C@@H]2[C@H](O)[C@H]1[C@@H]1[C@@H](O)[C@H]3C(=O)C3=C(O)c4c(O)cc(C)cc4C(=O)[C@]312 [Rugulosin],"inhibits, 9 mm radius cleared"
7,CC(=O)Nc1c2sscc-2n(C)c1=O [Thiolutin],"inhibits, 23 mm radius cleared"
8,Azalomycin,"inhibits, 14 mm radius cleared"

# Same assay, conditions: C. cucumerinum Antibiotic Panel; screen of Example 1
row,Molecule,"Observation: fungal thinning, radius"
1,COc1oc([C@H]2C/C(=C/C(C)=C/c3ccc([N+](=O)[O-])cc3)CO2)c(C)c(=O)c1C [Mycolutein],"fungal thinning, 16 mm radius"
